Test systems include SNB-75; Malme-3M; U-251; M14; OVCAR-4; UACC-62; SK-MEL-5; IGROV-1; HL-60; HCT-116; CAKI-1; SNB-19; 786-0; CCRF-CEM; SK-OV-3; HOP-92; EKVX; HT-29; SR.
Common to all, as to test: NCI anticancer screen, dose series, 48 h

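Test compounds were applied to cells in 96-well plates for 48 hours at 5 doses. Abbreviation: GI50, concentration required for 50% inhibition of growth.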 Calls of active or inactive are those of the source. Rule as the data show it: active = GI50 up to about 1.1 µM and inactive = higher.

Take `O=c1ccn([C@@H]2C[C@H](CO)C[S+]([O-])C2)c(=O)[nH]1` (stereo partly specified): the GI50 in the assay with SNB-75, in the assay on Malme-3M, in the assay with U-251, in the assay with M14, in the assay on OVCAR-4 and in the assay with UACC-62 was > 100 µM (inactive) each time. Besides, the GI50 in the assay with SK-MEL-5, with IGROV-1, with HL-60, with HCT-116, with CAKI-1 and in the assay on SNB-19 was > 100 µM (inactive) in each case. In addition, the GI50 in the assay on 786-0, in the assay on CCRF-CEM, with SK-OV-3, in the assay with HOP-92, in the assay on EKVX and in the assay with HT-29 was > 100 µM (inactive) throughout.

In the case of `C=CC1(NS(=O)(=O)c2ccc(C)cc2)CCC(C(C)(C)C)CC1` (stereo unspecified), the GI50 is 17.8 µM (inactive) with SNB-75; 82.2 µM (inactive) in the assay on Malme-3M; 35.6 µM (inactive) with U-251; 56 µM (inactive) in the assay on SR; 98.6 µM (inactive) in the assay on M14; 91.6 µM (inactive) in the assay with OVCAR-4. For the same molecule, the GI50 is 28.5 µM (inactive) in the assay on UACC-62; > 100 µM (inactive) in the assay with SK-MEL-5; 76.2 µM (inactive) in the assay on IGROV-1; 70.1 µM (inactive) in the assay with HL-60; > 100 µM (inactive) in the assay with HCT-116; > 100 µM (inactive) with CAKI-1. For the same molecule, the GI50 in the assay on SNB-19 is 36.6 µM (inactive); with 786-0 it was 46.8 µM (inactive); in the assay with CCRF-CEM, > 100 µM (inactive); in the assay on SK-OV-3, 34.4 µM (inactive).

Take `COc1cc([C@@H]2c3cc4c(cc3C(N)C3COC(=O)[C@@H]32)OCO4)cc(OC)c1O` (stereo partly specified): the GI50 was 0.133 µM (active) in the assay on SNB-75; 0.0857 µM (active) with SR; 0.269 µM (active) in the assay with M14; 0.71 µM (active) with OVCAR-4; 0.037 µM (active) in the assay with UACC-62; 0.244 µM (active) with SK-MEL-5. Further, the GI50 is 0.515 µM (active) in the assay on IGROV-1; 0.19 µM (active) in the assay with HL-60; 0.33 µM (active) in the assay on HCT-116; 0.163 µM (active) with CAKI-1; 0.17 µM (active) in the assay with SNB-19; 0.537 µM (active) in the assay on 786-0. In addition, the GI50 with CCRF-CEM was 0.339 µM (active); with HT-29, 0.232 µM (active).

Turning to `C=CCCC(CCC=C)(C(=O)O)C(=O)O`, the GI50 in the assay with SNB-75, with Malme-3M, with U-251, with SR, in the assay with M14 and in the assay with UACC-62 was > 100 µM (inactive) in each case. In addition, the GI50 in the assay with SK-MEL-5, with IGROV-1, with HL-60, in the assay with HCT-116, in the assay with SNB-19 and with 786-0 was > 100 µM (inactive) throughout. Besides, the GI50 with CCRF-CEM, in the assay with EKVX and with HT-29 was > 100 µM (inactive) throughout.

On to `COc1ccc(/C=C2\C(=O)N(NC(C)=O)c3ccccc32)cc1`, for which the GI50 in the assay on SNB-75 is 33.5 µM (inactive); in the assay with Malme-3M, > 100 µM (inactive); in the assay with U-251, > 100 µM (inactive); with M14 it was > 100 µM (inactive); with OVCAR-4 it was > 100 µM (inactive); in the assay with UACC-62, > 100 µM (inactive). Besides, the GI50 is 46.2 µM (inactive) in the assay on SK-MEL-5; > 100 µM (inactive) with IGROV-1; 63.4 µM (inactive) with HCT-116; 43.5 µM (inactive) in the assay on CAKI-1; > 100 µM (inactive) with SNB-19; > 100 µM (inactive) with 786-0. The GI50 is 49.7 µM (inactive) in the assay on CCRF-CEM; > 100 µM (inactive) with SK-OV-3; > 100 µM (inactive) in the assay with HOP-92; 48.8 µM (inactive) in the assay with EKVX; 42 µM (inactive) in the assay on HT-29.

Take `CN(CCCCN)c1ccc2c(=O)[nH][nH]c(=O)c2c1`: the GI50 in the assay on SNB-75 was 88.3 µM (inactive); in the assay on Malme-3M, > 100 µM (inactive); in the assay on U-251, > 100 µM (inactive); with M14, 13.5 µM (inactive); in the assay on OVCAR-4, > 100 µM (inactive); in the assay on UACC-62, > 41.8 µM (inactive). Moreover, the GI50 in the assay with SK-MEL-5 is > 10 µM (inactive); in the assay with IGROV-1, > 44.9 µM (inactive); in the assay with HL-60 it was > 100 µM (inactive); with HCT-116, > 100 µM (inactive); with CAKI-1, > 100 µM (inactive); in the assay on SNB-19 it was > 10 µM (inactive). The GI50 with 786-0, with CCRF-CEM, with SK-OV-3, in the assay on HOP-92, in the assay on EKVX and in the assay on HT-29 was > 100 µM (inactive) each time.

In the case of `Cc1cc(C)c(C2[C@H]3C(=O)N(c4ccc(Cc5ccc(N6C(=O)[C@@H]7ON(c8ccccc8)C(c8c(C)cc(C)cc8C)[C@@H]7C6=O)cc5)cc4)C(=O)[C@H]3ON2c2ccccc2)c(C)c1` (stereo partly specified), the GI50 with SNB-75, in the assay with Malme-3M, in the assay on U-251, in the assay with SR, with M14 and with OVCAR-4 was > 100 µM (inactive) each time. Moreover, the GI50 was > 100 µM (inactive) in the assay with UACC-62; > 100 µM (inactive) in the assay on SK-MEL-5; > 100 µM (inactive) with IGROV-1; 46.3 µM (inactive) in the assay with HL-60; > 100 µM (inactive) in the assay with HCT-116; 57.9 µM (inactive) with CAKI-1. Further, the GI50 in the assay on SNB-19, in the assay on 786-0, with CCRF-CEM, in the assay on SK-OV-3, with EKVX and in the assay on HT-29 was > 100 µM (inactive) throughout.

Take `CC1CCN(CCC(=O)CC(c2ccccc2)c2c(O)c3ccccc3oc2=O)CC1` (stereo unspecified): the GI50 in the assay on SNB-75 was 82.8 µM (inactive); with U-251 it was > 100 µM (inactive); with SR, > 100 µM (inactive); with M14 it was > 100 µM (inactive); in the assay on OVCAR-4, > 100 µM (inactive); with UACC-62, > 100 µM (inactive). For the same molecule, the GI50 in the assay with SK-MEL-5, in the assay with IGROV-1, in the assay with HL-60, in the assay on HCT-116, in the assay with CAKI-1 and in the assay with SNB-19 was > 100 µM (inactive) in each case. The GI50 with 786-0, in the assay on CCRF-CEM, in the assay on SK-OV-3, in the assay with EKVX and with HT-29 was > 100 µM (inactive) each time.

Consider `NNC(=O)c1ccc(-n2nnc(C(=O)NN)c2C(=O)NN)cc1`, for which the GI50 in the assay with Malme-3M, with U-251, in the assay on SR, in the assay on M14, in the assay on OVCAR-4 and in the assay on SK-MEL-5 was > 100 µM (inactive) throughout. Also, the GI50 in the assay with HL-60, in the assay on HCT-116, with CAKI-1, in the assay on SNB-19, in the assay on 786-0 and in the assay on CCRF-CEM was > 100 µM (inactive) throughout. Moreover, the GI50 in the assay on HOP-92, in the assay with EKVX and in the assay with HT-29 was > 100 µM (inactive) each time.

For `COC(=O)C(C#N)=C1c2ccccc2Oc2ccccc21`, the GI50 in the assay on SNB-75 was 42.2 µM (inactive); in the assay with Malme-3M it was 93.3 µM (inactive); with M14, 53.8 µM (inactive); with OVCAR-4 it was 43.8 µM (inactive); in the assay on UACC-62, 35.7 µM (inactive); in the assay with SK-MEL-5, 33.9 µM (inactive). Besides, the GI50 in the assay with IGROV-1 is 64.3 µM (inactive); in the assay on HL-60, 20.8 µM (inactive); with CAKI-1, > 100 µM (inactive); in the assay on SNB-19 it was 41.6 µM (inactive); in the assay with 786-0 it was 63.7 µM (inactive); in the assay with CCRF-CEM it was 32.4 µM (inactive). Besides, the GI50 was 42.1 µM (inactive) in the assay on SK-OV-3, 30.5 µM (inactive) in the assay with HOP-92, > 100 µM (inactive) with EKVX and 39.3 µM (inactive) with HT-29.

For `NNC(=O)Cn1ccnn1`, the GI50 in the assay with SNB-75, with Malme-3M, with U-251, with SR, in the assay on M14 and in the assay with SK-MEL-5 was > 100 µM (inactive) in each case. Further, the GI50 in the assay on IGROV-1, in the assay on HL-60, with CAKI-1, in the assay on SNB-19, with 786-0 and with CCRF-CEM was > 100 µM (inactive) each time. The GI50 in the assay with HOP-92, with EKVX and in the assay with HT-29 was > 100 µM (inactive) each time.

With `O=C1CCCN(c2ccccc2)N1`, the GI50 in the assay on SNB-75, in the assay on Malme-3M, in the assay on U-251, in the assay with SR, in the assay with M14 and in the assay with OVCAR-4 was > 100 µM (inactive) each time. The GI50 with UACC-62, with SK-MEL-5, with IGROV-1, in the assay on HL-60, with HCT-116 and in the assay with CAKI-1 was > 100 µM (inactive) in each case. The GI50 in the assay on SNB-19, in the assay with 786-0, with SK-OV-3, in the assay with EKVX and in the assay with HT-29 was > 100 µM (inactive) throughout.

Values taken from ChEMBL document CHEMBL1201862, “PubChem BioAssay data set” (2004).
